Assay: gradient 5% acetonitrile 3 min, to 50% in 2 min, to 85% in 15 min, held 3 min, 100 µL/min
Settings: column: Zorbax Extend-C18 2.1 x 50 mm; eluents: water / acetonitrile, 0.1% formic acid
In short: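 Each retention time is based on an adduct peak selected computationally and verified by manual inspection. Measurements used HPLC–quadrupole time-of-flight mass spectrometry in positive and negative ionization mode on mixtures of ~100 pure standards. Chromatography ran on a Zorbax Extend-C18 column (2.1 × 50 mm, 1.8 μm) at 100 μL/min with water and acetonitrile, each containing 0.1% formic acid, and dead and dwell volumes of 40 μL and 900 μL.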

Q: For `COc1ccc(-c2noc(COC(=O)C3=CN(Cc4ccccc4)S(=O)(=O)N=C3C)n2)cc1`, which RP-LC retention time is on record?
A: 1090 s

Q: With `CN(C)c1cc(-n2cnc(C(=O)Nc3ccc4c(c3)OCO4)c2)ncn1` as the compound, how does the RP-LC retention time read?
A: 774 s

Q: For `CC(=O)N[C@@H]1CN(C(=O)c2ccc3c(c2)OCO3)C[C@H]1CO`, which RP-LC retention time is on record?
A: 571 s

Q: With `CCCCCn1c(=O)c2ccccc2n(Cc2nc(-c3cccc(OC)c3)no2)c1=O` as the compound, how does the RP-LC retention time read?
A: 1130 s

Q: Which RP-LC retention time does the source give for `O=C(Cn1ccn2nc(-c3ccc(F)cc3)c(CO)c2c1=O)Nc1cc(F)ccc1F` here?
A: 843 s

Q: Which RP-LC retention time does the source give for `Cc1nc2cc(N3CC(C(=O)N4CCN(c5ccc(F)cc5)CC4)CC3=O)ccc2o1` (centres undefined) here?
A: 749 s

Q: With `CC(C)c1ccc(N2CC(c3nc(-c4ccc5c(c4)OCO5)no3)CC2=O)cc1` (centres undefined) as the compound, how does the RP-LC retention time read?
A: 1100 s

Q: For `CCc1nc2cccnc2n1CCN1CCN(C(=O)Nc2ccc(C)c(Cl)c2)CC1`, which RP-LC retention time is on record?
A: 742 s

Q: For `Cc1cc(S(=O)(=O)N2CCN(C3CCN(CCC(C)C)C3=O)CC2)ccc1Cl` (centres undefined), which RP-LC retention time is on record?
A: 773 s

Q: For `O=c1n(CCOc2ccc(F)cc2)nc2c(S(=O)(=O)N3CCCCC3)cccn12`, which RP-LC retention time is on record?
A: 894 s

Q: For `COc1cc(OC)cc(-c2noc(-c3nn(-c4ccc(C)cc4)ccc3=O)n2)c1`, which RP-LC retention time is on record?
A: 916 s

Q: Which RP-LC retention time does the source give for `CCOc1cc(C2c3c(oc4ccccc4c3=O)C(=O)N2CCCN(C)C)ccc1O` (centres undefined) here?
A: 989 s

Q: Which RP-LC retention time does the source give for `Cc1noc(CN2N=C(C(=O)N3CCC(C)CC3)S(=O)(=O)c3ccccc32)n1` here?
A: 826 s

Q: For `CC1=NS(=O)(=O)N(Cc2ccccc2)C=C1C(=O)OCc1noc(-c2cccc(C)c2)n1`, which RP-LC retention time is on record?
A: 1180 s

Q: Which RP-LC retention time does the source give for `O=C(Nc1ccc(Br)cc1F)C1CCCN(C(=O)c2cccc(C(F)(F)F)c2)C1` (centres undefined) here?
A: 1060 s

Q: For `COc1ccc(OC)c(NC(=O)Cn2nc3c4cc(Cl)ccc4ncn3c2=O)c1`, which RP-LC retention time is on record?
A: 740 s

Q: For `CCN1C(=O)c2ccccc2Oc2ccc(C(=O)NC(C)Cc3ccco3)cc21` (centres undefined), which RP-LC retention time is on record?
A: 929 s

Q: For `Cc1ccc(NC(=O)C2CCN(C(=O)c3ncn4c3COC(c3ccccc3)C4)CC2)cc1C` (centres undefined), which RP-LC retention time is on record?
A: 796 s

Q: With `Cc1oc(-c2[nH]ncc2C(=O)N2CCCC2)cc1S(=O)(=O)NCCC(C)C` as the compound, how does the RP-LC retention time read?
A: 736 s

Q: With `CCCCN1CCN(C(=O)c2ccc(-c3ccnc(N4CCCC4)n3)cc2)CC1` as the compound, how does the RP-LC retention time read?
A: 573 s

Q: For `Cn1c(-c2cccc(C(=O)NCc3cccs3)c2)nc2cccnc21`, which RP-LC retention time is on record?
A: 688 s

Q: For `Cc1ccccc1-c1noc(Cn2c(=O)n(Cc3ccccc3Cl)c(=O)c3sccc32)n1`, which RP-LC retention time is on record?
A: 1200 s

Q: Which RP-LC retention time does the source give for `Cc1cc2c(N3CCCC(C(=O)NCc4cccc(Cl)c4)C3)nccc2s1` (centres undefined) here?
A: 713 s

Q: With `O=C(N[C@H]1C[C@@H]2C[C@H]1N(S(=O)(=O)c1cccs1)C2)c1ccccc1` as the compound, how does the RP-LC retention time read?
A: 833 s

Q: Which RP-LC retention time does the source give for `CN1CC(CNS(=O)(=O)c2ccccc2C(F)(F)F)C2(CCCCC2)C1` (centres undefined) here?
A: 696 s

Q: For `COc1ccc(Br)c2c1-c1nc(NC(=O)c3cccc(C)c3)sc1C2`, which RP-LC retention time is on record?
A: 1140 s

Q: For `COc1cc(-c2nc3ncccn3c2NC2CCC(C)CC2)ccc1OC(C)C` (centres undefined), which RP-LC retention time is on record?
A: 868 s

Q: For `CC(C)Cn1cc(S(=O)(=O)Nc2cc(F)ccc2F)c2cccnc21`, which RP-LC retention time is on record?
A: 994 s

Q: With `O=C(NCCN1CCOCC1)c1cc2n(n1)CCCN(Cc1ccc(Cl)cc1)C2=O` as the compound, how does the RP-LC retention time read?
A: 629 s

Q: For `CNC(=O)c1cc(Oc2ccc(NC(=O)Nc3cc(C(C)(C)C)nn3-c3ccc4ncccc4c3)c(F)c2)ccn1`, which RP-LC retention time is on record?
A: 855 s

Q: With `Cc1nc2c(c(SCC(=O)Nc3nc(-c4ccccc4)cs3)n1)CCC2` as the compound, how does the RP-LC retention time read?
A: 982 s

Q: For `COc1ccccc1-c1noc(Cn2ncn3nc(-c4ccccc4Cl)cc3c2=O)n1`, which RP-LC retention time is on record?
A: 1040 s

Q: With `O=[N+]([O-])c1ccccc1S(=O)(=O)Nc1cccc(-c2ccc(N3CCOCC3)nn2)c1` as the compound, how does the RP-LC retention time read?
A: 646 s

Q: For `CCOc1ccc(C(=O)N2CCCC2c2nc(-c3ccc(OC)cc3)no2)cc1` (centres undefined), which RP-LC retention time is on record?
A: 886 s

Reference: the METLIN SMRT retention time set (Domingo-Almenara et al. 2019)
